Measured values published in patent publication US6762171B1, “Fatty acid CoA thioester inhibitory substance of PPARα and PPARγ” (Kyorin Pharmaceutical Co, Ltd., priority 2002, dated 2004).

Tests used:
[1] = molecular target: T1, human-type PPAR α ligand-binding domain (Homo sapiens, UniProt Q07869); assay: Competition binding with [3H]KRP-297 to 6×His-hPPARα ligand-binding domain; conditions: for Binding to the ligand-binding domain of PPARα: competition with 100 nM [3H]KRP-297, test concentration not given; for Binding to PPAR α ligand-binding domain, in words: competition with [3H]KRP-297
T1 construct: made in house; host or cells: Escherichia coli
T1 sequence (Q07869 239-466 limits assumed): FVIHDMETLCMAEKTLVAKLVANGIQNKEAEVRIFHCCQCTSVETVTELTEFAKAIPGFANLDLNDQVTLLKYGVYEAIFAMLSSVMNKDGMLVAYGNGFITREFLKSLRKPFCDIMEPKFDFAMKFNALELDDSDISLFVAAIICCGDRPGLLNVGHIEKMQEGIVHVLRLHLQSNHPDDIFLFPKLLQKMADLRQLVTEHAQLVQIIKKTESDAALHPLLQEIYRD
Source text: (§1) Proteins (6×His-hPPARs LBD) tagged 6-copy histidine to the side of N-termini in the ligand-binding domains of human-type PPAR α and PPAR γ were expressed in Escherichia coli, respectively, and purified through a nickel column.

[2] = molecular target: T2, human-type PPAR γ ligand-binding domain (Homo sapiens, UniProt P37231); assay: Competition binding with [3H]KRP-297 to 6×His-hPPARγ ligand-binding domain; conditions: for Binding to the ligand-binding domain of PPARγ: competition with 100 nM [3H]KRP-297, test concentration not given; for Binding to PPAR γ ligand-binding domain, in words: competition with [3H]KRP-297
T2 construct: made in house; host or cells: Escherichia coli
T2 sequence (P37231 238-503 limits assumed): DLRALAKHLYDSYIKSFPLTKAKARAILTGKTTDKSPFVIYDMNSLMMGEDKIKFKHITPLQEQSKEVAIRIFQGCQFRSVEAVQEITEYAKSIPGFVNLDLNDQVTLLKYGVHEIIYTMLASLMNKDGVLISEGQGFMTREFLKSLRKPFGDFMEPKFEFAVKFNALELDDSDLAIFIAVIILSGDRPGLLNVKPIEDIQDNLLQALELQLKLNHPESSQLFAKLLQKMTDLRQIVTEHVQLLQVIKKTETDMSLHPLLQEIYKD
Source text: as §1

[3] = molecular target: T3, Human PPARα ligand-binding domain and SRC-1 (Homo sapiens, UniProt Q07869); assay: Conjugate formation between PPARα LBD and [35S]SRC-1; type: biochemical
T3 construct: made in house; host or cells: Escherichia coli (PPAR LBD); in vitro translation, TNT, Promega (SRC-1)
T3 sequence (Q07869 239-466 limits assumed): T1 sequence (Q07869 239-466 limits assumed)
Description: (§2) [35S]methionine-labeled form of SRC-1 containing 2-copy of LXXLL motif was prepared in vitro (TNTR, Promega Co., Madison, Wis.). 6×His-hPPARs LBD protein was incubated for 60 minutes at 4° C. in 50 mM Tris-HCl buffer (pH 7.4) containing 50 mM KCl and 1 mM dithiothreitol and 0.1% bovine serum albumin in the presence or absence of testing compound. Thereafter, […] of anti-6×His antibody (QIAGEN Co., Germany) were added and the mixture was incubated for 60 minutes at 4° C. Successively, […] of protein G Sepharose (Falmasia Biotech Co., Sweden) were added and the mixture was incubated for 60 minutes at 4° C. After washed thrice by centrifugation, protein G Sepharose was dissolved with […] of SDS-sample buffer, 20% SDS-PAGE, and then [35S]SRC-1 was detected by means of autography.

[4] = molecular target: T4, Human PPARγ ligand-binding domain and SRC-1 (Homo sapiens, UniProt P37231); assay: Conjugate formation between PPARγ LBD and [35S]SRC-1; type: biochemical
T4 construct: made in house; host or cells: Escherichia coli (PPAR LBD); in vitro translation, TNT, Promega (SRC-1)
T4 sequence (P37231 238-503 limits assumed): T2 sequence (P37231 238-503 limits assumed)
Description: as §2

| Structure (SMILES) | Binding to the ligand-binding domain of PPARα [1] | Binding to the ligand-binding domain of PPARγ [2] | Binding to PPAR α ligand-binding domain, in words [1] | Binding to PPAR γ ligand-binding domain, in words [2] | also measured |
| --- | --- | --- | --- | --- | --- |
| CCCCC/C=C\C/C=C\CCCCCCCC(=O)SCCNC(=O)CCNC(=O)[C@H](O)C(C)(C)COP(=O)(O)OP(=O)(O)OC[C@H]1O[C@@H](n2cnc3c(N)ncnc32)[C@H](O)[C@@H]1OP(=O)(O)O [Linoleoyl CoA] | 92% | 59% | ligand | ligand | Conjugate formation between PPARα LBD and SRC-1 ([3]; KRP-297 30 μM, Linoleoyl CoA 3 μM (0 μM: 6.1 ± 1.7)): 5.5 ± 1.5; Conjugate formation between PPARα LBD and SRC-1 ([3]; KRP-297 30 μM, Linoleoyl CoA 10 μM (0 μM: 6.1 ± 1.7)): 4.4 ± 0.8; Conjugate formation between PPARα LBD and SRC-1 ([3]; KRP-297 30 μM, Linoleoyl CoA 30 μM (0 μM: 6.1 ± 1.7)): 1.4 ± 0.1; Conjugate formation between PPARα LBD and SRC-1 ([3]; KRP-297 30 μM, Linoleoyl CoA 100 μM (0 μM: 6.1 ± 1.7)): 0.9 ± 0.3; Inhibition of conjugate formation of SRC-1 with PPAR α, in words ([3]; conjugate formation due to ligands KRP-297 and linoleic acid): dose-dependently inhibited; Conjugate formation between PPARα LBD and SRC-1 ([3]; linoleic acid 30 μM, Linoleoyl CoA 3 μM (0 μM: 5.3 ± 1.9)): 6.1 ± 2.2; Conjugate formation between PPARα LBD and SRC-1 ([3]; linoleic acid 30 μM, Linoleoyl CoA 10 μM (0 μM: 5.3 ± 1.9)): 2.4 ± 0.8; Conjugate formation between PPARα LBD and SRC-1 ([3]; linoleic acid 30 μM, Linoleoyl CoA 30 μM (0 μM: 5.3 ± 1.9)): 1.2 ± 0.4; Conjugate formation between PPARα LBD and SRC-1 ([3]; linoleic acid 30 μM, Linoleoyl CoA 100 μM (0 μM: 5.3 ± 1.9)): 0.9 ± 0.3; Conjugate formation between PPARγ LBD and SRC-1 ([4]; BRL-49653 30 μM, Linoleoyl CoA 3 μM (0 μM: 4.8 ± 0.7)): 4.9 ± 0.6; Conjugate formation between PPARγ LBD and SRC-1 ([4]; BRL-49653 30 μM, Linoleoyl CoA 10 μM (0 μM: 4.8 ± 0.7)): 4.8 ± 1.9; Conjugate formation between PPARγ LBD and SRC-1 ([4]; BRL-49653 30 μM, Linoleoyl CoA 30 μM (0 μM: 4.8 ± 0.7)): 1.5 ± 0.5; Conjugate formation between PPARγ LBD and SRC-1 ([4]; BRL-49653 30 μM, Linoleoyl CoA 100 μM (0 μM: 4.8 ± 0.7)): 1.0 ± 0.1; Inhibition of conjugate formation of SRC-1 with PPAR γ, in words ([4]; conjugate formation due to ligands BRL-49,653 and linoleic acid): dose-dependently inhibited; Conjugate formation between PPARγ LBD and SRC-1 ([4]; linoleic acid 30 μM, Linoleoyl CoA 3 μM (0 μM: 4.5 ± 0.7)): 4.2 ± 0.3; Conjugate formation between PPARγ LBD and SRC-1 ([4]; linoleic acid 30 μM, Linoleoyl CoA 10 μM (0 μM: 4.5 ± 0.7)): 2.7 ± 1.1; Conjugate formation between PPARγ LBD and SRC-1 ([4]; linoleic acid 30 μM, Linoleoyl CoA 30 μM (0 μM: 4.5 ± 0.7)): 1.9 ± 0.8; Conjugate formation between PPARγ LBD and SRC-1 ([4]; linoleic acid 30 μM, Linoleoyl CoA 100 μM (0 μM: 4.5 ± 0.7)): 1.3 ± 0.4 |
| CCCCCCCC/C=C\CCCCCCCC(=O)SCCNC(=O)CCNC(=O)[C@H](O)C(C)(C)COP(=O)(O)OP(=O)(O)OC[C@H]1O[C@@H](n2cnc3c(N)ncnc32)[C@H](O)[C@@H]1OP(=O)(O)O [Oleoyl CoA] | 95% | 52% | ligand | ligand | – |
| CCCCCCCCCCCCCCCC(=O)SCCNC(=O)CCNC(=O)[C@H](O)C(C)(C)COP(=O)(O)OP(=O)(O)OC[C@H]1O[C@@H](n2cnc3c(N)ncnc32)[C@H](O)[C@@H]1OP(=O)(O)O [Palmitoyl CoA] | 83% | 72% | ligand | ligand | – |
| CCCCCCCCCCCCCCCCCC(=O)SCCNC(=O)CCNC(=O)[C@H](O)C(C)(C)COP(=O)(O)OP(=O)(O)OC[C@H]1O[C@@H](n2cnc3c(N)ncnc32)[C@H](O)[C@@H]1OP(=O)(O)O [Stearoyl CoA] | 94% | 89% | ligand | ligand | – |

Further lines, with some results ahead:

| Binding to the ligand-binding domain of PPARα [1] | Binding to the ligand-binding domain of PPARγ [2] | Binding to PPAR α ligand-binding domain, in words [1] | Binding to PPAR γ ligand-binding domain, in words [2] | Structure (SMILES) | also measured |
| --- | --- | --- | --- | --- | --- |
| 99% | – | – | – | CCCCC/C=C\C/C=C\C=C\[C@@H](O)C/C=C\CCCC(=O)O [8(S)-Hydroxyeicosatetraenoic acid, 8(S)-hydroxyeicosatetraenoic acid, reference compound] | – |
| – | 93% | – | – | CCCCC/C=C/C=C1/C(=O)C=C[C@@H]1C/C=C\CCCC(=O)O [15-Deoxy-Δ^12,14-prostaglandin J2, 15-deoxy-Δ^12,14-prostaglandin J2, reference compound] | – |
| 54% | 46% | ligand | ligand | CCCCC/C=C\C/C=C\C/C=C\C/C=C\CCCC(=O)SCCNC(=O)CCNC(=O)[C@H](O)C(C)(C)COP(=O)(O)OP(=O)(O)OC[C@H]1O[C@@H](n2cnc3c(N)ncnc32)[C@H](O)[C@@H]1OP(=O)(O)O [Arachidonoyl CoA] | – |
| 70% | 45% | ligand | ligand | CCCCCCCCCCCCCC(=O)SCCNC(=O)CCNC(=O)[C@H](O)C(C)(C)COP(=O)(O)OP(=O)(O)OC[C@H]1O[C@@H](n2cnc3c(N)ncnc32)[C@H](O)[C@@H]1OP(=O)(O)O [Myristoyl CoA] | – |
